One test deals with CDK9 (Homo sapiens, UniProt P50750). Briefly: Kinobeads competition binding, HL60 cell lysate. On the set-up: endogenous in cells. The note with it: 10 μM free compound. The method in brief:
(§1)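 Two aliquots of HL60 cell lysate were used, one spiked with 10 μM compound and one with 0.5% DMSO, before pull-down on immobilized-compound beads (50 mg protein, 2 h, 4 °C). Bound proteins were digested and labeled with different iTRAQ reagents. Combined peptides were analysed by LC-MS/MS.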

The target of the next test is PKN2 (Homo sapiens, UniProt Q16513). Briefly: Kinobeads competition binding, HL60 cell lysate. Details: endogenous in cells. The note with it: 10 μM free compound. An outline of the steps:
as §1

The next test concerns the target CaMKK2 (Homo sapiens, UniProt Q96RR4). Briefly: Kinobeads competition binding, HL60 cell lysate. Details: endogenous in cells. The note with it: 10 μM free compound. An outline of the steps: as §1
The target in another test is PYK2 (Homo sapiens, UniProt Q14289). Put plainly: Kinobeads competition binding, HL60 cell lysate. On the set-up: endogenous in cells. The note with it: 10 μM free compound. An outline of the steps: as §1
A further test deals with T1, ULK3 (Homo sapiens, UniProt Q6PHR2).
T1 sequence (Q6PHR2 1-472): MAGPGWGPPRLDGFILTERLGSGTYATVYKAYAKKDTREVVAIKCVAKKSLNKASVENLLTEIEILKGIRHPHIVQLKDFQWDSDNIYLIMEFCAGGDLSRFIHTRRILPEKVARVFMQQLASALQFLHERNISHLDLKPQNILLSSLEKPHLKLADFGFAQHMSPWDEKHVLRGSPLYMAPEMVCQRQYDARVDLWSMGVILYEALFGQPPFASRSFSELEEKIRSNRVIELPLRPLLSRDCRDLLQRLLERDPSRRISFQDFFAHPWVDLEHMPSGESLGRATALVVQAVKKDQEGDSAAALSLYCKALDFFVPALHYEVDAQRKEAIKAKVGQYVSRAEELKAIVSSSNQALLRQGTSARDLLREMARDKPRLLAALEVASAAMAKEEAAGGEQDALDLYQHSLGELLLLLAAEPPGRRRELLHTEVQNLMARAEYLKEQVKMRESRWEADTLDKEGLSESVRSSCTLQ
Briefly: Kinobeads competition binding, HL60 cell lysate. On the set-up: endogenous in cells. The note with it: 10 μM free compound. The method in brief:
as §1

The target of another test is JAK1 (Homo sapiens, UniProt P23458). Put plainly: Kinobeads competition binding, HL60 cell lysate. Details: endogenous in cells. The note with it: 10 μM free compound. An outline of the steps: as §1
For the next test, the target named is AAK1 (Homo sapiens, UniProt Q2M2I8). Put plainly: Kinobeads competition binding, L-363 cell lysate. Details: capturing and identification of kinases from L-363 cell lysate; endogenous in cells; host or cells: L-363 cells, treated with MG132 before harvest. The note with it: 10 μM free compound, L-363 lysate. How it is done: (§2) To one aliquot of cell lysate 10 μM of the free compound (FIG. 3, CZC31326) was added and allowed to bind to proteins in the lysate. Then the affinity matrix with the immobilized compound was added to capture proteins that were not interacting with the previously added free compound. Beads were separated from the lysate and bead bound proteins were eluted in SDS sample buffer and subsequently separated by SDS-Polyacrylamide gel electrophoresis (FIG. 8). Suitable gel bands were cut out and subjected to in-gel proteolytic digestion with trypsin. The second lysate aliquot was processed identically, however no free compound was added (DMSO solvent control). Peptides originating from samples 1 and 2 were labeled with iTRAQ reagents (iTRAQ 114 and iTRAQ 117) and the combined samples were analyzed with a nano-flow liquid chromatography system coupled online to a tandem mass spectrometer (LC-MS/MS) experiment followed by iTRAQ reporter ion quantification in the MS/MS spectra as described in Example 2.
(§3) For this experiment the human plasma cell leukaemia line L-363 was used (German Collection of Microorganisms and Cell Cultures, DSMZ number ACC49, Braunschweig, Germany). Cells were treated for three hours with 20 μM of the proteasome inhibitor MG132 (Z-Leu-Leu-Leu-al, Sigma C2211) prior to cell harvesting.

The next test addresses BTK (Homo sapiens, UniProt Q06187). Put plainly: Kinobeads competition binding, L-363 cell lysate. On the set-up: capturing and identification of kinases from L-363 cell lysate; endogenous in cells; host or cells: L-363 cells, treated with MG132 before harvest. The note with it: 10 μM free compound, L-363 lysate. How it is done: as §2, §3

AAK1, sequence (Q2M2I8 whole entry): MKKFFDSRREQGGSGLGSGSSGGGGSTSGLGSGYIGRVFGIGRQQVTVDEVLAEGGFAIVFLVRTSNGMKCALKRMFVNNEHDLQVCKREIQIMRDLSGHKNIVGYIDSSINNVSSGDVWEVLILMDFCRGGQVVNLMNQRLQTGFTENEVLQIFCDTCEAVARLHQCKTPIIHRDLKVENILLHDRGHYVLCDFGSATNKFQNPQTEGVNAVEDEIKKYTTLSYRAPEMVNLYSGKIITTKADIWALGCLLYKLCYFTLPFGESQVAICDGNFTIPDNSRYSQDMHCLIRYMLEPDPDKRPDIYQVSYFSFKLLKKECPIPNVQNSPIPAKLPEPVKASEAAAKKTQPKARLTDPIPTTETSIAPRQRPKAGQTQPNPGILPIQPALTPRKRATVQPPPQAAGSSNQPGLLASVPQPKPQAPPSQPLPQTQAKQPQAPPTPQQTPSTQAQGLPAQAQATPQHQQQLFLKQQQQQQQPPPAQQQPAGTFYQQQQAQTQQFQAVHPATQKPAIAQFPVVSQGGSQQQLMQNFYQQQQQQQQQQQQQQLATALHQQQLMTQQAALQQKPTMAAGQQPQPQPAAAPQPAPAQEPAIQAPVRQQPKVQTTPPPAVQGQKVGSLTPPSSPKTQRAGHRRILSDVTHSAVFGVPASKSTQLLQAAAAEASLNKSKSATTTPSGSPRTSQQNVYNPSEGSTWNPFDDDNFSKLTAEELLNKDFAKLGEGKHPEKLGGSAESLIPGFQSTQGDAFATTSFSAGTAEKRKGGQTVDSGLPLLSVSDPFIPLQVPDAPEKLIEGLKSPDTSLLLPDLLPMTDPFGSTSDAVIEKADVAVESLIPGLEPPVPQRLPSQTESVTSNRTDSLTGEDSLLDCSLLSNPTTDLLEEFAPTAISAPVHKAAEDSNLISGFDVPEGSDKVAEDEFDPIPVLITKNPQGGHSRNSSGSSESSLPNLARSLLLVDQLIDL
JAK1, sequence (P23458 whole entry): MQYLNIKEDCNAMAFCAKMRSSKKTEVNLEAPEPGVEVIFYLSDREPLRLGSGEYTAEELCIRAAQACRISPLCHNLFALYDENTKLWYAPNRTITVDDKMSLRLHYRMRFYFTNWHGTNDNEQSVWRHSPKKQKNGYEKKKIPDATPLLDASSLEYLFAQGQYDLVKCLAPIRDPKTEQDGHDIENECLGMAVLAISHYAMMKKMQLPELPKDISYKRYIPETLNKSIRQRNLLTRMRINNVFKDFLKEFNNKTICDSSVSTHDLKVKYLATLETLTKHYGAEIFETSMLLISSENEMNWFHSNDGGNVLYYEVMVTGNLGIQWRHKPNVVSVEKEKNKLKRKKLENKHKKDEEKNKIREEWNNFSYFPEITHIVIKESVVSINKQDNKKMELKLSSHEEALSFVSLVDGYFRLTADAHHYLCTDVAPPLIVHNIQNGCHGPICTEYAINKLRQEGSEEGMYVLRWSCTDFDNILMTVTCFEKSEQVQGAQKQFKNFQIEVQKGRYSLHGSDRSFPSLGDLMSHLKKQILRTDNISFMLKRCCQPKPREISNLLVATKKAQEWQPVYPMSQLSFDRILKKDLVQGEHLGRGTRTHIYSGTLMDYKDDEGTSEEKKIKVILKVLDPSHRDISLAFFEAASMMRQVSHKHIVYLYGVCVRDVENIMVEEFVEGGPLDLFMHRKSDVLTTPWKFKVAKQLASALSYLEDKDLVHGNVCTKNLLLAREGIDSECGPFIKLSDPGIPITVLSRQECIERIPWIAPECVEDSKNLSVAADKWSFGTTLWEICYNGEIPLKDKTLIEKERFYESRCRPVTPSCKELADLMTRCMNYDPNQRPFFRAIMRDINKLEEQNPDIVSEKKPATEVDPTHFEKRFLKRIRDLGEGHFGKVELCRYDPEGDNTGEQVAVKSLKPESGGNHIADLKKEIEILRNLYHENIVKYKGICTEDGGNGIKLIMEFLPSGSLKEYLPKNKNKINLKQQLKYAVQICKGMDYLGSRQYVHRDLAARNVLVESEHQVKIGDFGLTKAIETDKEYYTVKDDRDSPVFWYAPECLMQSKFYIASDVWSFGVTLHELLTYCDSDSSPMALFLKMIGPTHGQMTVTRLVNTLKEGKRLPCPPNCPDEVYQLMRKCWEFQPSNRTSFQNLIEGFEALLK
BTK, sequence (Q06187 whole entry): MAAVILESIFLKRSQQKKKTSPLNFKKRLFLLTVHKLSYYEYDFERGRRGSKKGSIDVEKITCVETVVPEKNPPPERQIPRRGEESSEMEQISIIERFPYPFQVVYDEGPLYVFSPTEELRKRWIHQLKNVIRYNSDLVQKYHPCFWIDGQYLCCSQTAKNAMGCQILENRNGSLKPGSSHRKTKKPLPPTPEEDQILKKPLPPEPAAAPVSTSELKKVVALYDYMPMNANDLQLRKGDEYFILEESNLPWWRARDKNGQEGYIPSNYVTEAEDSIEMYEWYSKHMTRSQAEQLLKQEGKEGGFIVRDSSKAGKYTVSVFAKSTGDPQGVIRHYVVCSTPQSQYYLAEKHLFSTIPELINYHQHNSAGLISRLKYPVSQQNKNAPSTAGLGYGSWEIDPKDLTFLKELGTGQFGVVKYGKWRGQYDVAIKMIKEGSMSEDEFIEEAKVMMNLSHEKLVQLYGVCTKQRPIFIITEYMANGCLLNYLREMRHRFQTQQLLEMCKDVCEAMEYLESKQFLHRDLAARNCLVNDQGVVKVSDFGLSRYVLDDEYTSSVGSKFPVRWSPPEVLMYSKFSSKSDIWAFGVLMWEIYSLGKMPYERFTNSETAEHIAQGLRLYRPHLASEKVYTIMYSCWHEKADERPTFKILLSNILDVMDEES
PKN2, sequence (Q16513 whole entry): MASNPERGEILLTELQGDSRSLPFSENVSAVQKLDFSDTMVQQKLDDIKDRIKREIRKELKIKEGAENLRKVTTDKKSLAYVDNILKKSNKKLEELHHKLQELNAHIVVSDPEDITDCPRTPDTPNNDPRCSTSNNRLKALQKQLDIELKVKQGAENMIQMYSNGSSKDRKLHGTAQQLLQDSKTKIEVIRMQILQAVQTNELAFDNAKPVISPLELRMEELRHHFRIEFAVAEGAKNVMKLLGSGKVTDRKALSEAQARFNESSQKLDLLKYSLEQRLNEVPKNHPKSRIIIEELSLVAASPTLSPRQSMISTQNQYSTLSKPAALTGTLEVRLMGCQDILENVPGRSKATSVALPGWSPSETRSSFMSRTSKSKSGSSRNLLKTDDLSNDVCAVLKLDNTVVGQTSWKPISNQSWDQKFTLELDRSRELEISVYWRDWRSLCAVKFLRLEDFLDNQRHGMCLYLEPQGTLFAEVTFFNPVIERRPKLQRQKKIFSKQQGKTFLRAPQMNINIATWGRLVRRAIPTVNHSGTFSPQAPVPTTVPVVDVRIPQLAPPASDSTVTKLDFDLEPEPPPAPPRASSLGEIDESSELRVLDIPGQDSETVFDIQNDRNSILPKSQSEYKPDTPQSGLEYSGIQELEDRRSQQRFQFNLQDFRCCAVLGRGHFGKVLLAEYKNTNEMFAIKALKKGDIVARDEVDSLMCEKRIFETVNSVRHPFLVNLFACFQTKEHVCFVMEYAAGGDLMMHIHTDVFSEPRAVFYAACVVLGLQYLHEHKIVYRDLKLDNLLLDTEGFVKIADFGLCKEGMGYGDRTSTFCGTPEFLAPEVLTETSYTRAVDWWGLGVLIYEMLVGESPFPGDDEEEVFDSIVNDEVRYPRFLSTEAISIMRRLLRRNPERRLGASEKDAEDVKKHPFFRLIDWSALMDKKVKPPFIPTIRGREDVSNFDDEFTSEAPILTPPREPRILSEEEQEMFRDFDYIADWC
CaMKK2, sequence (Q96RR4 whole entry): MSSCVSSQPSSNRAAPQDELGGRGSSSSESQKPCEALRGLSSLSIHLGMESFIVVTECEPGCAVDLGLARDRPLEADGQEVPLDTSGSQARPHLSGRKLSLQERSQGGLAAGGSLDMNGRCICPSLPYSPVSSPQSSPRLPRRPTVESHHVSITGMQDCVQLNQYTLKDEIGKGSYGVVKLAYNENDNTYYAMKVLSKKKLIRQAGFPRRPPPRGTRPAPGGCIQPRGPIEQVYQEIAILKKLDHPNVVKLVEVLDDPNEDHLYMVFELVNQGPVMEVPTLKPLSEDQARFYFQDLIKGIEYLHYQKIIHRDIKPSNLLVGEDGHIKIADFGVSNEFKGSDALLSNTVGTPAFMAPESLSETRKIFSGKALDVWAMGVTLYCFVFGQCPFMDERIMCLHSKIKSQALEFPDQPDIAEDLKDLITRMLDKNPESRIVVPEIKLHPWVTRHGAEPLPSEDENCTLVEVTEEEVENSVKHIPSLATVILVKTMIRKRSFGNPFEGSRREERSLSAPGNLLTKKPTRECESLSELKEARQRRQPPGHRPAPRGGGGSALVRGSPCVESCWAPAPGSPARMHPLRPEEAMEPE
CDK9, sequence (P50750 whole entry): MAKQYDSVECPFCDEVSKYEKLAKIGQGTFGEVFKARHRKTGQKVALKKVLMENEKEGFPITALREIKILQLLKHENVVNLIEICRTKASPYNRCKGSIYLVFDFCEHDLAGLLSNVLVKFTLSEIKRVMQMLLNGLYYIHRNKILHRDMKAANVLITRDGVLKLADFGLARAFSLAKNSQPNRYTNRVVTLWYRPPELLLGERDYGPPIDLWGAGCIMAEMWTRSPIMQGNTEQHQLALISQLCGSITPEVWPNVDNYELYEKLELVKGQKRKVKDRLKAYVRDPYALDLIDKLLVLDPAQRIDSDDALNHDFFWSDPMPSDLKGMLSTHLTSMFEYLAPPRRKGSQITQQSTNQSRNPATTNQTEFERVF

In the case of `CS(=O)(=O)Nc1ccccc1Nc1nc(Nc2cccc(OCCN)c2)ncc1Cl` [CZC31326, N-(2-(2-(3-(2-aminoethoxy)phenylamino)-5-chloropyrimidin-4-ylamino)phenyl)methanesulfonamide], the inhibition (usually the percentage by which the read-out fell short of the control) at 10 µM on CDK9 was 98.2%; at PKN2 it was 93.9%; on CaMKK2 it was 98.1%; on PYK2, 95.7%; on AAK1 it was 97.4%. Moreover, the Competition % on ULK3 was 97.7%; on JAK1 it was 97.8%; at BTK, 95.7%.

(Values after patent US20120270237A9, “METHODS FOR THE IDENTIFICATION OF KINASE INTERACTING MOLECULES AND FOR THE PURIFICATION OF KINASE PROTEINS” (Cellzone AG, priority 2009, published 2012).)
